Patent publication US20200017495A1, “NOVEL HETEROCYCLIC COMPOUNDS AND THEIR USE IN PREVENTING OR TREATING BACTERIAL INFECTIONS” (priority 2017, published 2020)
Read-outs that look alike come from different tables or passages of the source.

What was measured:
Assay in all cases: MIC of compounds alone and combined with antibacterials, broth microdilution (CLSI)
Type in all cases: cell-based
[1] = tested on: Morganella morganii (MMO) isolates; conditions: Morganella morganii
Method in brief: (§1)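 Log-phase isolates were inoculated at a final 5.10^5 CFU/mL in cation-adjusted Mueller-Hinton broth and incubated 16-20 h at 35° C in ambient air. MIC was the lowest concentration preventing visible growth; for combinations, the antibacterial MIC was read at each compound concentration.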

[2] = tested on: Serratia marcescens (SMA) isolates; conditions: Serratia marcescens
Method in brief: as §1

[3] = tested on: Klebsiella pneumoniae (KPN) isolates; conditions: Klebsiella pneumoniae
Method in brief: as §1

[4] = tested on: Citrobacter koseri (CKR) isolates; conditions: Citrobacter koseri
Method in brief: as §1

[5] = tested on: Providencia rettgeri (PRE) isolates; conditions: Providencia rettgeri
Method in brief: as §1

What does the source list for `C=CC1=C(C(=O)O)N2C(=O)[C@@H](NC(=O)/C(=N\O)c3csc(N)n3)[C@H]2SC1` [CDR, Cefdinir]?
MIC [1]: > 256 µg/mL; MIC ([1]; strain MMO 200321, genotype TEM-1, CTX-M-15, OXA-1, read-out: MIC): 256 µg/mL; MIC ([1]; strain MMO UFR144, genotype TEM-1, CTX-M-15, read-out: MIC): 128 µg/mL; MIC ([1]; strain MMO UFR240, genotype CTX-M-9, read-out: MIC): 64 µg/mL; MIC ([1]; strain MMO UFR241, genotype TEM-1, CTX-M-15, read-out: MIC): 128 µg/mL; MIC ([1]; strain MMO UFR243, genotype DHA-1, read-out: MIC): 64 µg/mL; MIC ([1]; strain MMO UFR244, genotype DHA-1, read-out: MIC): 32 µg/mL; MIC ([1]; strain MMO UFR245, genotype DHA-1, read-out: MIC): 64 µg/mL; MIC ([1]; strain MMO UFR246, genotype DHA-1, read-out: MIC): 64 µg/mL; MIC ([1]; strain MMO UFR247, genotype DHA-1, read-out: MIC): 128 µg/mL; MIC [2]: > 256 µg/mL; MIC ([2]; strain SMA UFR134, genotype TEM-1, BES-1, read-out: MIC): 256 µg/mL; MIC ([2]; strain SMA UFR137, genotype SME-1, read-out: MIC): 4 µg/mL; MIC ([2]; strain SMA UFR138, genotype SME-1, read-out: MIC): 8 µg/mL; MIC ([2]; strain SMA UFR139, genotype SME-2, read-out: MIC): 64 µg/mL; MIC ([2]; strain SMA UFR239, genotype ESAC, read-out: MIC): 128 µg/mL; MIC ([3]; BAA1898, strain KPN BAA-1898, genotype TEM-1, SHV-11, SHV-12, KPC-2): > 256 µg/mL; MIC ([3]; strain KPN 6299, genotype TEM-1, SHV-11, OXA-163, read-out: MIC): 256 µg/mL; MIC ([3]; strain KPN 110376, genotype TEM-1, SHV-1, CTX-M-15, OXA-1, OXA-48): > 256 µg/mL; MIC ([3]; strain KPN 131119, genotype TEM-1, SHV-11, CTX-M-15, OXA-1, OXA-48): > 256 µg/mL; MIC ([3]; strain KPN 140513, genotype TEM-1, SHV-11, CTX-M-15, KPC-3): > 256 µg/mL; MIC ([3]; strain KPN 160143, genotype TEM-1, SHV-1, CTX-M-15, KPC-2, OXA-1): > 256 µg/mL; MIC ([3]; strain KPN 190128, genotype TEM-1, SHV-32, CTX-M-15, OXA-1): > 256 µg/mL; MIC ([3]; strain KPN 190270, genotype TEM-1, SHV-76, CTX-M-15, OXA-1): > 256 µg/mL; MIC ([3]; strain KPN 190425, genotype TEM-1, SHV-1, CTX-M-15, OXA-1): > 256 µg/mL; MIC ([3]; strain KPN 190551, genotype TEM-1, SHV-1, CTX-M-15, OXA-1): > 256 µg/mL; MIC ([3]; strain KPN 200047, genotype TEM-1, SHV-32, CTX-M-15, OXA-1): > 256 µg/mL; MIC ([3]; strain KPN 200327, genotype TEM-1, SHV-1, CTX-M-15, OXA-1): > 256 µg/mL; MIC ([3]; strain KPN 260251, genotype TEM-1, SHV-11, SHV-12, CTX-M-15, KPC-2): > 256 µg/mL; MIC ([3]; strain KPN 260252, genotype TEM-1, SHV-11, KPC-3): > 256 µg/mL; MIC ([3]; strain KPN 260376, genotype SHV-1, SHV-49, OXA-1): > 256 µg/mL; MIC ([3]; strain KPN 270077, genotype TEM-1, SHV-1, CTX-M-15): > 256 µg/mL; MIC ([3]; strain KPN 700603, genotype SHV-18, OXA-2, read-out: MIC): 4 µg/mL; MIC ([3]; strain KPN ARA, genotype TEM-1, SHV-11, CTX-M-15, OXA-1, OXA-48): > 256 µg/mL; MIC ([3]; strain KPN LIB, genotype SHV-11, OXA-48): > 256 µg/mL; MIC ([3]; strain KPN UFR22_O, genotype TEM-1, SHV-1, OXA-48): > 256 µg/mL; MIC ([3]; strain KPN UFR23, genotype TEM-1, SHV-1, OXA-48): > 256 µg/mL; MIC ([3]; strain KPN UFR24, genotype TEM-1, SHV-2, SHV-11, OXA-1, OXA-48, OXA-47): > 256 µg/mL; MIC ([3]; strain KPN UFR25, genotype TEM-1, SHV-11, CTX-M-15, OXA-162): > 256 µg/mL; MIC ([3]; strain KPN UFR27, genotype TEM-1, SHV-28, CTX-M-15, OXA-204): > 256 µg/mL; MIC ([3]; strain KPN UFR28, genotype TEM-1, SHV-1, CTX-M-15, OXA-1, OXA-232): > 256 µg/mL; MIC ([3]; strain KPN UFR65, genotype TEM-1, SHV-11, KPC-2): > 256 µg/mL; MIC ([3]; strain KPN UFR66, genotype TEM-1, SHV-11, CTX-M-15, KPC-2): > 256 µg/mL; MIC ([3]; strain KPN UFR67, genotype TEM-1, SHV-11, KPC-3): > 256 µg/mL; MIC ([3]; strain KPN UFR68, genotype TEM-1, SHV-11, CTX-M-15, KPC-3): > 256 µg/mL; MIC ([3]; strain KPN UFR76, genotype TEM-155, SHV-11, ACT-1, OXA-2): > 256 µg/mL; MIC ([3]; strain KPN UFR77, genotype CMY-2, read-out: MIC): 64 µg/mL; MIC ([3]; strain KPN UFR78, genotype TEM-1, SHV-1, CTX-M-15, CMY-2, OXA-1, OXA-48): > 256 µg/mL; MIC ([3]; strain KPN UFR79, genotype DHA-1, OXA-1, read-out: MIC): 256 µg/mL; MIC ([3]; strain KPN UFR80, genotype SHV-11, DHA-1, OXA-1, read-out: MIC): 1 µg/mL; MIC ([3]; strain KPN UFR81, genotype TEM-1, SHV-1, DHA-1, OXA-48): > 256 µg/mL; MIC ([3]; strain KPN UFR215, genotype SHV-27, CTX-M-15): > 256 µg/mL; MIC ([3]; strain KPN UFR216, genotype SHV-28, CTX-M-15): > 256 µg/mL; MIC ([3]; strain KPN UFR217, genotype TEM-1, SHV-1, CTX-M-15): > 256 µg/mL; MIC ([3]; strain KPN UFR219, genotype SHV-12, CTX-M-15): > 256 µg/mL; MIC ([3]; strain KPN UFR220, genotype TEM-1, SHV-12, DHA-1): > 256 µg/mL; MIC ([3]; strain KPN UFR221, genotype TEM-1, SHV-11, CTX-M-14, DHA-1, read-out: MIC): 128 µg/mL; MIC ([3]; strain KPN UFR222, genotype DHA-2): > 256 µg/mL; MIC ([3]; strain KPN UFR227O, genotype TEM-x, SHV-x, CTX-M-x): > 256 µg/mL; MIC [4]: > 256 µg/mL; MIC ([5]; strain PRE UFR99, genotype OXA-1, OXA-181): > 256 µg/mL; MIC ([5]; strain PRE UFR236, genotype TEM-1, OXA-48): > 256 µg/mL
